Reference: patent publication US9187458B2, “Cyanoquinoline derivatives” (Tianjin Hemay Bio-Tech Co., LTD., priority 2010, dated 2015)

Columns and labels:
Type in all cases: cell-based
LoVo cells = assay: LoVo Cell Growth Inhibition Test (MTT Assay); conditions: Homo sapiens, 72 h incubation
Description: LoVo Cell Growth Inhibition Test (MTT Assay)
1. Cell strains: LoVo (human intestinal cancer cell strains);
(§1) 1. A plate (10 cm) of cells in logarithmic growth phase normally cultured was collected;
2. The culture solution was sucked out. The plate was washed with 5 ml of PBS 1-2 times;
3. PBS was sucked out. 2 ml of 0.25% pancreatin was added to infiltrate the cells for 1 min;
4. The pancreatin was sucked out. The culture plate was placed in an incubator. Digestion was carried out for about 4 min at 37° C.;
5. 4 ml of complete culture solution was added in the culture plate to stop the digestion. The cells were carefully scoured with micropipette (1 ml) to give a uniform cell suspension. The suspension was implanted into a 96-well cell culture plate by 3000-4000 cells/100 μl per well. The culture plate was incubated overnight under 5% CO2 at 37° C. In day 2, 100 μl of culture solution comprising a compound was added into each well, and further incubated for 72 h under 5% CO2 at 37° C.
(§2) 6. The culture solution was sucked out;
7. 100 μl of serum-free culture solution containing 0.5 mg/ml MTT was added in each well, and incubated for 4 h;
(§3) 8. The culture solution was carefully sucked out;
9. 100 μl of DMSO was added in each well and vibrated to dissolve;
(§4) 10. OD values were determined at 490 nM.
1. Calculation of Relative Inhibition Ratio The inhibition ratio of a compound on cell growth=(PC−n)/(PC−NC)×100%
(§5) IC50: Concentration of a compound where inhibition ratio was 50%. IC50 values were fitted with Origin7.5.

Sk-Br-3 cells = assay: Sk-Br-3 Cell Growth Inhibition Test (SRB Assay); conditions: Homo sapiens, 91 h incubation
Description: Sk-Br-3 Cell Growth Inhibition Test (SRB Assay)
1. Cell strains: Sk-Br-3 (human breast cancer cell strains);
2. SRB: available from Sigmaaldrich, goods number: S9012, lot number: 047K3751. SRB was reserved at the room temperature. 0.4% (w/v) of working solution was formulated with 1% of glacial acetic acid. The solution was reserved at 4° C.; anti-tumor compounds; DMSO
Culture medium: 90% DMEM+10% FBS;
1. A plate (10 cm) of cells in logarithmic growth phase normally cultured was collected. The culture solution was sucked out. The plate was washed with 5 mL of PBS 1-2 times;
2. PBS was sucked out. […] of 0.25% pancreatin was added to infiltrate the cells for 30 s;
3. The pancreatin was sucked out. The culture plate was placed in an incubator. Digestion was carried out for about 1.5-2 min at 37° C.;
4. 4 mL of complete culture solution was added to the culture plate to stop the digestion. The cells were carefully scoured with micropipette (1 ml) to give a uniform single cell suspension;
5. Cell suspension was counted. The suspension was diluted to 1×10^5/ml. The resulting suspension was developed uniformly on a plate by 10000 cells/100 μl per well. The culture plate was incubated overnight under 5% CO2 at 37° C. In day 2, 100 μl of culture solution comprising a compound was added in each well, and further incubated for 91 h under 5% CO2 at 37° C.
6. The culture solution was sucked out. 100 uL of TCA fixed cells which were diluted to 10% were added to each well. The plate was kept in a refrigerator for 1 h at 4° C.
7. TCA stationary liquid was sucked out. Each well was washed with 150 μL of ddH2O five times;
8. After the stationary liquid was cleansed, the plate was dried in the air at the room temperature;
9. 60 μL of SRB staining solution was added in each well. The well was stained for 15 min at the room temperature;
10. The SRB staining solution was sucked out. Each well was washed with 150 μL of 1% glacial acetic acid five times;
11. After the SRB staining solution was cleansed, the plate was dried in the air at the room temperature;
12. 100 μL of 10 mM Tris was added in each well. The plate was vibrated to dissolve out SRB;
13. OD values were determined at 570 nM.
To: OD values of the starting content of cells when the cells were developed on a plate;
PC: OD values of cells after normal growth in control wells without a compound;
Ti: OD values of cells after growth in test wells with a compound;
NC: Background OD values of blank well without a compound and cells
Therefore: Ratio of cells in test wells to normal wells (% of control cell growth)=(Ti−To)/(PC−To)×100%
Ratio GI50 was concentration of a compound at the point of 50%.
Therefore: Ratio of killed cells to inoculated cells (% of killed cells)=(Ti−To)/(To−NC)×100%
LC50 was concentration point of a compound when half of the starting inoculated concentration was reached.
Concentration of a compound at this point is defined as TGI (total growth inhibition).

NCI-N87 cells = assay: NCI-N87 Cell Growth Inhibition Test (MTT Assay); conditions: Homo sapiens, 72 h incubation
Description: NCI-N87 Cell Growth Inhibition Test (MTT Assay)
1. Cell strains: NCI-N87 (human gastric carcinoma cell strains);
as §1
2. The culture solution was sucked out. The plate was washed wtih 5 ml of PBS 1-2 times;
3. PBS was sucked out. 1.5 ml of 0.25% pancreatin was added to infiltrate the cells for 1 min;
4. The pancreatin was sucked out. The culture plate was placed in an incubator. Digestion was carried out for about 12 min at 37° C.;
5. 4.5 ml of complete culture solution was added to the culture plate to stop the digestion. The cells were carefully scoured with micropipette (1 ml) to give a uniform cell suspension. The suspension was implanted into a 96-well cell culture disc by 17000 cells/100 μl per well. The culture plate was incubated overnight under 5% CO2 at 37° C. In day 2, 100 μl of culture solution comprising a compound was added in each well, and further incubated for 72 h under 5% CO2 at 37° C.
as §2
7. 100 μl of serum-free culture solution containing 0.5 mg/ml MTT was added in each well, and incubated for 3 h;
as §3
9. 100 μl of DMSO was added in each welland vibrated to dissolve;
as §4
1. Calculation of Rrelative Inhibition Ratio The inhibition ratio of a compound on cell growth=(PC−n)/(PC−NC)×100%
as §5

IC50 (LoVo cells) | SMILES | GI50 (Sk-Br-3 cells) | IC50 (NCI-N87 cells)
2000 nM | CN(C)C/C=C/C(=O)Nc1cc2c(Nc3ccc(OCc4ccccn4)c(Cl)c3)c(C#N)cnc2cc1OC1CCOC1 (stereo not shown) [Example 21, (E)-N-(4-(3-CHLORO-4-(PYRIDIN-2-YL-METHOXY)PHENYLAMINO)-3-CYANO-7-(TETRAHYDROFURAN-3-YL-OXY)QUINOLIN-6-YL)-4-(DIMETHYLAMINO)-BUT-2-ENAMIDE] | 4.1 nM | 6.8 nM
2100 nM | CN(C)C/C=C/C(=O)Nc1cc2c(Nc3ccc(OCc4ccccn4)c(Cl)c3)c(C#N)cnc2cc1O[C@H]1CCOC1 [Example 138, (S,E)-N-(4-(3-CHLORO-4-(PYRIDIN-2-YL-METHOXY)PHENYLAMINO)-3-CYANO-7-(TETRAHYDROFURAN-3-YL-OXY)QUINOLIN-6-YL)-4-(DIMETHYLAMINO)-BUT-2-ENAMIDE] | 3.8 nM | 4.4 nM
2200 nM | CN(C)C/C=C/C(=O)Nc1cc2c(Nc3ccc(OCc4ccccn4)c(Cl)c3)c(C#N)cnc2cc1O[C@@H]1CCOC1 [Example 139, (R,E)-N-(4-(3-CHLORO-4-(PYRIDIN-2-YL-METHOXY)PHENYLAMINO)-3-CYANO-7-(TETRAHYDROFURAN-3-YL-OXY)QUINOLIN-6-YL)-4-(DIMETHYLAMINO)-BUT-2-ENAMIDE] | 5.2 nM | 7.2 nM
5600 nM | CC(C)(C)NC/C=C/C(=O)Nc1cc2c(Nc3ccc(OCc4ccccn4)c(Cl)c3)c(C#N)cnc2cc1O[C@H]1CCOC1 [Example 153, (S,E)-N-(4-(3-CHLORO-4-(PYRIDIN-2-YL-METHOXY)PHENYLAMINO)-3-CYANO-7-(TETRAHYDROFURAN-3-YL-OXY)QUINOLIN-6-YL)-4-(TERT-BUTYLAMINO)-BUT-2-ENAMIDE] | 6.8 nM | 15 nM
2000 nM | Cc1ccccc1COc1ccc(Nc2c(C#N)cnc3cc(OC4CCOC4)c(NC(=O)/C=C/CN(C)C)cc23)cc1Cl (stereo not shown) [Example 17, (E)-N-(4-(4-(2-METHYLBENZYLOXY)-3-CHLOROPHENYLAMINO)-3-CYANO-7-(TETRAHYDROFURAN-3-YL-OXY)QUINOLIN-6-YL)-4-(DIMETHYLAMINO)-BUT-2-ENAMIDE] | 7 nM | 21 nM
2000 nM | CN(C)C/C=C/C(=O)Nc1cc2c(Nc3ccc(OCc4ccccc4Cl)c(Cl)c3)c(C#N)cnc2cc1OC1CCOC1 (stereo not shown) [Example 10, (E)-N-(4-(4-(2-CHLOROBENZYLOXY)-3-CHLOROPHENYLAMINO)-3-CYANO-7-(TETRAHYDROFURAN-3-YL-OXY)QUINOLIN-6-YL)-4-(DIMETHYLAMINO)-BUT-2-ENAMIDE] | 6 nM | 11 nM
8570 nM | C#Cc1cccc(Nc2c(C#N)cnc3cc(OC4CCOC4)c(NC(=O)/C=C/CN(C)C)cc23)c1 (stereo not shown) [Example 5, (E)-N-(3-CYANO-4-(3-ETHYNYLPHENYLAMINO)-7-(TETRAHYDROFURAN-3-YL-OXY)QUINOLIN-6-YL)-4-(DIMETHYLAMINO)-BUT-2-ENAMIDE] | 24 nM | 22 nM
1580 nM | CN(C)C/C=C/C(=O)Nc1cc2c(Nc3ccc(OCc4cccc(F)c4)c(Cl)c3)c(C#N)cnc2cc1OC1CCOC1 (stereo not shown) [Example 9, (E)-N-(4-(4-(3-FLUOROBENZYLOXY)-3-CHLOROPHENYLAMINO)-3-CYANO-7-(TETRAHYDROFURAN-3-YL-OXY)QUINOLIN-6-YL)-4-(DIMETHYLAMINO)-BUT-2-ENAMIDE] | 15 nM | 8.6 nM
6600 nM | N#Cc1cnc2cc(O[C@H]3CCOC3)c(NC(=O)/C=C/CN3CCOCC3)cc2c1Nc1ccc(OCc2ccccn2)c(Cl)c1 [Example 152, (S,E)-N-(4-(3-CHLORO-4-(PYRIDIN-2-YL-METHOXY)PHENYLAMINO)-3-CYANO-7-(TETRAHYDROFURAN-3-YL-OXY)QUINOLIN-6-YL)-4-(MORPHOLIN-4-YL)-BUT-2-ENAMIDE] | 19 nM | 20 nM
1900 nM | N#Cc1cnc2cc(O[C@H]3CCOC3)c(NC(=O)/C=C/CN3CCCCC3)cc2c1Nc1ccc(OCc2ccccn2)c(Cl)c1 [Example 151, (S,E)-N-(4-(3-CHLORO-4-(PYRIDIN-2-YL-METHOXY)PHENYLAMINO)-3-CYANO-7-(TETRAHYDROFURAN-3-YL-OXY)QUINOLIN-6-YL)-4-(PIPERIDIN-1-YL)-BUT-2-ENAMIDE] | 17 nM | 16 nM
2200 nM | CCN(CC)C/C=C/C(=O)Nc1cc2c(Nc3ccc(OCc4ccccn4)c(Cl)c3)c(C#N)cnc2cc1O[C@H]1CCOC1 [Example 150, (S,E)-N-(4-(3-CHLORO-4-(PYRIDIN-2-YL-METHOXY)PHENYLAMINO)-3-CYANO-7-(TETRAHYDROFURAN-3-YL-OXY)QUINOLIN-6-YL)-4-(DIETHYLAMINO)-BUT-2-ENAMIDE] | 11 nM | 6.6 nM
1800 nM | CN(C)C/C=C/C(=O)Nc1cc2c(Nc3ccc(OCc4ccc(Cl)cc4)c(Cl)c3)c(C#N)cnc2cc1OC1CCOC1 (stereo not shown) [Example 16, (E)-N-(4-(4-(4-CHLOROBENZYLOXY)-3-CHLOROPHENYLAMINO)-3-CYANO-7-(TETRAHYDROFURAN-3-YL-OXY)QUINOLIN-6-YL)-4-(DIMETHYLAMINO)-BUT-2-ENAMIDE] | 36 nM | 26 nM
8800 nM | C#Cc1cccc(Nc2c(C#N)cnc3cc(O[C@H]4CCOC4)c(NC(=O)/C=C/CN(C)C)cc23)c1 [Example 140, (S,E)-N-(3-CYANO-4-(3-ETHYNYLPHENYLAMINO)-7-(TETRAHYDROFURAN-3-YL-OXY)QUINOLIN-6-YL)-4-(DIMETHYLAMINO)-BUT-2-ENAMIDE] | 22 nM | 15 nM
 | C#Cc1cccc(Nc2c(C#N)cnc3cc(O[C@H]4CCOC4)c(NC(=O)/C=C/CN4CCOCC4)cc23)c1 [Example 145, (S,E)-N-(3-CYANO-4-(3-ETHYNYLPHENYLAMINO)-7-(TETRAHYDROFURAN-3-YL-OXY)QUINOLIN-6-YL)-4-(MORPHOLIN-4-YL)-BUT-2-ENAMIDE] | 831 nM | 346 nM
 | C#Cc1cccc(Nc2c(C#N)cnc3cc(O[C@H]4CCOC4)c(NC(=O)/C=C/CNC(C)(C)C)cc23)c1 [Example 146, (S,E)-N-(3-CYANO-4-(3-ETHYNYLPHENYLAMINO)-7-(TETRAHYDROFURAN-3-YL-OXY)QUINOLIN-6-YL)-4-(TERT-BUTYLAIMINO)-BUT-2-ENAMIDE] | 823 nM | 189 nM
